Results reported in ChEMBL document CHEMBL2311489 (Eur J Med Chem, 2013).
Values belong to the molecule of their own block, whether it stands above or below them. Active and inactive are the calls of the source. No cut-off for these calls is given here.

Columns and labels:
[1] = target: T1, 5-hydroxytryptamine receptor 7 (Homo sapiens, UniProt P34969)
[2] = target: 5-hydroxytryptamine receptor 2A (Homo sapiens, UniProt P28223); experiment: biochemical
Description: Displacement of [3H]-ketanserin from human 5HT2A receptor expressed in HEK293 after 1.5 hrs

[3] = target: T2, 5-hydroxytryptamine receptor 1A (Homo sapiens, UniProt P08908); experiment: biochemical
T2 sequence (P08908 whole entry): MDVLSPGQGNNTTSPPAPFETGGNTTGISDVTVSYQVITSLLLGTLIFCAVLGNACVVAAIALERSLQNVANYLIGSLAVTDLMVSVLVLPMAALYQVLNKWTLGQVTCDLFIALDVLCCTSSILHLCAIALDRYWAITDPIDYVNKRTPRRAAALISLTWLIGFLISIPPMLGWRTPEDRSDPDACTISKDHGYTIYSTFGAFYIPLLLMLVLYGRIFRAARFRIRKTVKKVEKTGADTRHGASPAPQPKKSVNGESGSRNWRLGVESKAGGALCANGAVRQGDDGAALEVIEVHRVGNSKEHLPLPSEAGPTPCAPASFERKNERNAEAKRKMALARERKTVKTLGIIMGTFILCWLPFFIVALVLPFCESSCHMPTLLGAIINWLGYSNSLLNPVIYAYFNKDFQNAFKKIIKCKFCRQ

[4] = target: T1, 5-hydroxytryptamine receptor 7; experiment: biochemical
[5] = target: T3, 5-hydroxytryptamine receptor 6 (Homo sapiens, UniProt P50406); experiment: biochemical
T3 sequence (P50406 whole entry): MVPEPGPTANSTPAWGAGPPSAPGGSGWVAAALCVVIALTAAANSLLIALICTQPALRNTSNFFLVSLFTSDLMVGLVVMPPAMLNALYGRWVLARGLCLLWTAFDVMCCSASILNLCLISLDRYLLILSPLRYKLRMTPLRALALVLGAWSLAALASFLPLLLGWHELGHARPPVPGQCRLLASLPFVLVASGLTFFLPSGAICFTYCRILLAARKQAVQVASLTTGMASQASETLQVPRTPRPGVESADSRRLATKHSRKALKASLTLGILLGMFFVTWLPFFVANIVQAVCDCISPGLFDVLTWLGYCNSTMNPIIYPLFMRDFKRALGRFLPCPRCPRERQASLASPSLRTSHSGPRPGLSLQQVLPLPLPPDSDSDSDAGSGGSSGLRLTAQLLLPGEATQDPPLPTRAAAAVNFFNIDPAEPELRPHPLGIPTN
Description: (§1) Displacement of [3H]-LSD from human 5HT6 receptor expressed in HEK293 after 1 hr

[6] = target: T2, 5-hydroxytryptamine receptor 1A
Description: Agonist activity at human 5HT1A receptor expressed in CHO cells assessed as cAMP accumulation

Mus musculus [7] = experiment: Toxicity in Swiss albino mouse assessed as locomotor activity at 5 to 20 mg/kg, ip measured after 2 to 6 mins; assay type: organism-based; set-up: route intraperitoneal; conditions: in vivo
Mus musculus [8] = organism: Mus musculus; experiment: animal or person; conditions: Swiss albino, ip, read-out: ID50
Description: Antipsychotic activity in ip dosed Swiss albino mouse assessed as inhibition of apomorphine-induced climbing behavior administered 10 mins before apomorphine-challenge measured after 2 mins

[9] = target: D(3) dopamine receptor (Homo sapiens) (UniProt P35462); experiment: Displacement of [3H]-methylspiperone from human dopamine D3 receptor expressed in HEK293 at 10^-7 M after 1 hr; assay type: cell-based
Chain of D(3) dopamine receptor (Homo sapiens) (P35462 whole entry): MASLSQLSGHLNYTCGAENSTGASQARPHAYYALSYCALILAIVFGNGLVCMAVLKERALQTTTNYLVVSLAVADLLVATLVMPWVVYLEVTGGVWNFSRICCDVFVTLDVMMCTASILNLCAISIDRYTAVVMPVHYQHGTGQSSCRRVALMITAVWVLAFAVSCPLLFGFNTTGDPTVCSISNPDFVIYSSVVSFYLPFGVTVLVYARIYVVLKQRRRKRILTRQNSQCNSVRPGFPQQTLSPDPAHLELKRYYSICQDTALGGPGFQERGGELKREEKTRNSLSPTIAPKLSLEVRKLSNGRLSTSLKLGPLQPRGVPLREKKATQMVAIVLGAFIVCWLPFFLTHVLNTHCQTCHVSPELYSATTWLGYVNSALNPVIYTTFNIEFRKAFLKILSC

[10] = target: Sodium-dependent serotonin transporter (Rattus norvegicus, UniProt P31652); experiment: biochemical
Chain of Sodium-dependent serotonin transporter (P31652 whole entry): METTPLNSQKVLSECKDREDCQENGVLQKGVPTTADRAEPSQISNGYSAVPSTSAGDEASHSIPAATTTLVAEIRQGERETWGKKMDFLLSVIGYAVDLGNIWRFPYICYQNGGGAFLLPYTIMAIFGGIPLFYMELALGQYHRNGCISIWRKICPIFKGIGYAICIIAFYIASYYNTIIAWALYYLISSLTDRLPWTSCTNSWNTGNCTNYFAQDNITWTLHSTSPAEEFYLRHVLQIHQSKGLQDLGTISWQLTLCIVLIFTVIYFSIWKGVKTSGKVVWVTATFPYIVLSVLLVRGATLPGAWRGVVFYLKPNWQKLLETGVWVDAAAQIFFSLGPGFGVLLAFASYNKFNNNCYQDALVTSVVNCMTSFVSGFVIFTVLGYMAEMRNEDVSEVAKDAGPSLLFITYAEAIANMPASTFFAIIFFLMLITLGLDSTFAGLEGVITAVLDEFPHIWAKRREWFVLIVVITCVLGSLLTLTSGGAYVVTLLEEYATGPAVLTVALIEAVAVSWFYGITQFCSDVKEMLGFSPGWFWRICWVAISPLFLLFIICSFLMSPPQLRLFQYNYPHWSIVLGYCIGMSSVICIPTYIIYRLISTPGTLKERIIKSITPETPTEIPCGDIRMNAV

Mus musculus [11] = experiment: Antipsychotic activity in Swiss albino mouse assessed as inhibition of apomorphine-induced climbing behavior at 5 mg/kg, ip administered 10 mins before apomorphine-challenge measured after 2 mins; assay type: functional; conditions: route intraperitoneal
Mus musculus [12] = experiment: Antipsychotic activity in CD1 mouse assessed as inhibition MK-801-evoked hyperactivity at 2.5 to 20 mg/kg, ip after 30 mins; assay type: functional, organism-based
D(2) dopamine receptor = D(2) dopamine receptor (Homo sapiens, UniProt P14416); experiment: biochemical; assay type: cell-based, HEK293
Chain of D(2) dopamine receptor (P14416 whole entry): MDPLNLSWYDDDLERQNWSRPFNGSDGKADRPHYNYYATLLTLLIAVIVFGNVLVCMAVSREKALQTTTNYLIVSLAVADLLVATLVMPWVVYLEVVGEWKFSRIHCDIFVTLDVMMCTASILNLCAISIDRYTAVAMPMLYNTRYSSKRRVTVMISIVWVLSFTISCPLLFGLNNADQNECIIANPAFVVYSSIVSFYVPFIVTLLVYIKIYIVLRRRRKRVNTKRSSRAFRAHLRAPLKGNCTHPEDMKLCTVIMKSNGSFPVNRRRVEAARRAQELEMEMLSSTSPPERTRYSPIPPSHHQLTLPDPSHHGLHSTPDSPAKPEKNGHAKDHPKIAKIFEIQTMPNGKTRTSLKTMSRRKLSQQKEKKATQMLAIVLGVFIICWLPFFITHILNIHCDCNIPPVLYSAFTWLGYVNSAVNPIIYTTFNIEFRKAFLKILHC
Description: Displacement of [3H]-raclopride from human dopamine D2L receptor expressed in HEK293 after 1 hr

[13] = target: T4, Adrenergic receptor alpha-1 (Rattus norvegicus, UniProt P15823+P23944+P43140)
T4 sequence (P15823 whole entry): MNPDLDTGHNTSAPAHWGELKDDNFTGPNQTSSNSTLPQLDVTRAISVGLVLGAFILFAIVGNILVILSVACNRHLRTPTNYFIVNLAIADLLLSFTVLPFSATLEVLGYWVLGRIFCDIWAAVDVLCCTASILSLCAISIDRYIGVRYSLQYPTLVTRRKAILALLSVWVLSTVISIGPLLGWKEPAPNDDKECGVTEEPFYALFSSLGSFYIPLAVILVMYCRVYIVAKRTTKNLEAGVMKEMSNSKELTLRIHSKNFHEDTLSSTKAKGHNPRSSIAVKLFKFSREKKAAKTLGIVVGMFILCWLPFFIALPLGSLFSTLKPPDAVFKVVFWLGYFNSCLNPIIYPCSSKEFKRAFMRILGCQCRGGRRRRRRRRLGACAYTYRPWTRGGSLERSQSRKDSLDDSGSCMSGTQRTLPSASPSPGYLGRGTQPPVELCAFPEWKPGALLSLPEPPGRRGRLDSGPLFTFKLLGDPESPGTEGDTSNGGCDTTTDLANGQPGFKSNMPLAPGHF
T4 sequence (P23944 whole entry): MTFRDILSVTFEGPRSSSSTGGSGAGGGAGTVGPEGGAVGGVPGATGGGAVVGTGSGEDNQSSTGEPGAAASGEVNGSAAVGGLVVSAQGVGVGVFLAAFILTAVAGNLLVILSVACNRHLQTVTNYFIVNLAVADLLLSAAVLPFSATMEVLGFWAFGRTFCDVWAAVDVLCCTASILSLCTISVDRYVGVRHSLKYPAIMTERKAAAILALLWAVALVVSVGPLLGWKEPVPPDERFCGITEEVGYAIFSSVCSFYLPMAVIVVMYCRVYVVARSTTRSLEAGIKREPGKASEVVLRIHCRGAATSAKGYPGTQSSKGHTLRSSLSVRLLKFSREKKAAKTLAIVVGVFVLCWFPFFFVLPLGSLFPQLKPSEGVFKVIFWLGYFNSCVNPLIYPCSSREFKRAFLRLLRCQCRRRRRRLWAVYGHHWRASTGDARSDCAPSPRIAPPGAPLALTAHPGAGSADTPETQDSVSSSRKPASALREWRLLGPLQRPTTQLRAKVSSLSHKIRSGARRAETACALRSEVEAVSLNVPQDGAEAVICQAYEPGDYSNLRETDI
T4 sequence (P43140 whole entry): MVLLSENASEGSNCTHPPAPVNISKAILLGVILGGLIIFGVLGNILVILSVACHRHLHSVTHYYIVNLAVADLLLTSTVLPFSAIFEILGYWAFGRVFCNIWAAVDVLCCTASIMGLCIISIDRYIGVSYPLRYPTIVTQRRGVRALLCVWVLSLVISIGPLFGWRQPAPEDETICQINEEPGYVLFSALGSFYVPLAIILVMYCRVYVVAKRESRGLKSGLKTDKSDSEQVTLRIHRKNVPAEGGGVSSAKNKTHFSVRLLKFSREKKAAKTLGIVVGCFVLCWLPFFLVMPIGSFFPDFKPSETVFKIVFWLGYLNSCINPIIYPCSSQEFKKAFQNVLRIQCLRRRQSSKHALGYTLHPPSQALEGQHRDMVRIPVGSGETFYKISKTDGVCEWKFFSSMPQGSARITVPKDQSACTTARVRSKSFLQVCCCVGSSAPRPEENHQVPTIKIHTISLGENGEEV
Description: Displacement of [3H]-Prazosin from adrenergic alpha1 receptor in rat cortex after 30 mins by scintillation counting

[14] = target: D(3) dopamine receptor (Homo sapiens) (UniProt P35462); experiment: Displacement of [3H]-methylspiperone from human dopamine D3 receptor expressed in HEK293 at 10^-6 M after 1 hr; assay type: cell-based
Mus musculus [15] = experiment: Antidepressant activity in Swiss albino mouse assessed as reduction of immobility time at 10 mg/kg, ip measured during last 4 mins of a 6 mins test session by forced swim test; assay type: functional; set-up: scale not given: the % may be the effect or the level left; conditions: route intraperitoneal
Mus musculus [16] = organism: Mus musculus; experiment: animal or person; conditions: Swiss albino, ip, 20 min, read-out: ID50
Description: Antipsychotic activity in ip dosed Swiss albino mouse assessed as inhibition of (+/-)DOI-induced head twitch response after 20 mins

Mus musculus [17] = experiment: Antidepressant activity in Swiss albino mouse assessed as reduction of immobility time at 20 mg/kg, ip measured during last 4 mins of a 6 mins test session by forced swim test; assay type: functional; set-up: scale not given: the % may be the effect or the level left; conditions: route intraperitoneal
Mus musculus [18] = experiment: Toxicity in Swiss albino mouse assessed as locomotor activity at 20 mg/kg, ip measured after 2 to 6 mins; assay type: organism-based; set-up: dose 20 mg/kg, route intraperitoneal; conditions: in vivo
[19] = target: T2, 5-hydroxytryptamine receptor 1A; remark: listed apart in the source
Mus musculus [20] = experiment: Toxicity in CD1 mouse assessed as increase of MK-801-evoked hyperactivity at 10 mg/kg, ip after 30 mins; assay type: organism-based; set-up: dose 10 mg/kg, route intraperitoneal; conditions: in vivo, 0.5 h
[21] = target: T1, 5-hydroxytryptamine receptor 7; remark: listed apart in the source
[22] = target: T3, 5-hydroxytryptamine receptor 6
Description: as §1

Mus musculus [23] = experiment: Antipsychotic activity in CD1 mouse assessed as inhibition MK-801-evoked hyperactivity at 10 to 20 mg/kg, ip after 30 mins; assay type: functional, organism-based
Mus musculus [24] = experiment: Antidepressant activity in Swiss albino mouse assessed as reduction of immobility time at 5 mg/kg, ip measured during last 4 mins of a 6 mins test session by forced swim test; assay type: functional; set-up: scale not given: the % may be the effect or the level left; conditions: route intraperitoneal
Mus musculus [25] = experiment: Antipsychotic activity in Swiss albino mouse assessed as inhibition of apomorphine-induced climbing behavior at 2.5 mg/kg, ip administered 10 mins before apomorphine-challenge measured after 2 mins; assay type: functional, organism-based; set-up: dose 2.5 mg/kg
Mus musculus [26] = experiment: Toxicity in CD1 mouse assessed as increase of MK-801-evoked hyperactivity at 20 mg/kg, ip after 30 mins; assay type: organism-based; set-up: dose 20 mg/kg, route intraperitoneal; conditions: in vivo, 0.5 h

Chain of 5-hydroxytryptamine receptor 2A (P28223 whole entry): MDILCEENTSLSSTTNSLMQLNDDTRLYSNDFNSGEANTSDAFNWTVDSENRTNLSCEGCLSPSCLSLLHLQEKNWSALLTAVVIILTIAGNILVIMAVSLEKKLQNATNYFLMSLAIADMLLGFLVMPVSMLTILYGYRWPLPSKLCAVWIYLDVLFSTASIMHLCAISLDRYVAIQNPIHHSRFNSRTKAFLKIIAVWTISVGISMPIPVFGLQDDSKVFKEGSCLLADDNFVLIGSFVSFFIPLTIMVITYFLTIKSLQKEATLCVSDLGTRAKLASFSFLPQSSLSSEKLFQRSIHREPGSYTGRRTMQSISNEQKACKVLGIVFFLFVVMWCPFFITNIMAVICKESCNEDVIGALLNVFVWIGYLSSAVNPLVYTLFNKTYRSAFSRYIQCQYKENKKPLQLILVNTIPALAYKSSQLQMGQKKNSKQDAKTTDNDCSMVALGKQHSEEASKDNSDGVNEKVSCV
T1 sequence (P34969 whole entry): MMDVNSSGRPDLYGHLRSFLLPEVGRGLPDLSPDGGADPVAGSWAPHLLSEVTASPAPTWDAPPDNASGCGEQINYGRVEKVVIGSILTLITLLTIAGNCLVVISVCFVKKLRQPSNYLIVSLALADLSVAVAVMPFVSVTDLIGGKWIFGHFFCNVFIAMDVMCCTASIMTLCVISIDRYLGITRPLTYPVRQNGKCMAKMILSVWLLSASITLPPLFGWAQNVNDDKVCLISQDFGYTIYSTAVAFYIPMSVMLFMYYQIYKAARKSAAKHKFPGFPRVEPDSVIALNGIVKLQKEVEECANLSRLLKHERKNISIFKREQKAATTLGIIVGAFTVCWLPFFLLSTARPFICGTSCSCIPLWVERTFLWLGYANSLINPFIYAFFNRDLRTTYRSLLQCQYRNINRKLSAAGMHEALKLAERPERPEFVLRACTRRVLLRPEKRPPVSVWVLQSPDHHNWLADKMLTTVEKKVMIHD

Structure (SMILES): CSc1ccc2c(c1)C(CCN)=CC2 [METHIOTHEPINE]
IC50 [1]: 2.2 nM

Structure (SMILES): O=S(=O)(NCCCN1CCN(c2cccc(Cl)c2Cl)CC1)c1ccc2ncccc2c1
Ki [2]: 65 nM
Ki [3]: 25 nM
Ki [4]: 31 nM
Ki [5]: 326 nM

Structure (SMILES): O=S(=O)(NCCCN1CCN(c2cccc(Cl)c2Cl)CC1)c1cnc2ccc(Cl)cc2c1
Ki [2]: 115 nM
Ki [3]: 23 nM
Ki [4]: 46 nM
Ki [5]: 901 nM

Structure (SMILES): O=S(=O)(NCCCCN1CCN(c2cccc(Cl)c2Cl)CC1)c1ccc2cccnc2c1
IC50 [1]: 3800 nM
EC50 [6]: 865 nM
Activity (Mus musculus [18]): Toxic
ED50 (Mus musculus [8]): 19.9 mg/kg
Ki [2]: 22 nM
Ki [19]: 17 nM
inhibition [9]: 99%
Ki [10]: 788 nM
inhibition in vivo at 5 mg/kg (Mus musculus [11]): 43.6%
Activity (Mus musculus [20]): Toxic
Ki (D(2) dopamine receptor): 11 nM
Ki [21]: 31 nM
Ki [13]: 136 nM
Ki [22]: 301 nM
inhibition [14]: 101%
Activity (Mus musculus [15]): 48%
ED50 (Mus musculus [16]): 4.58 mg/kg
Activity (Mus musculus [17]): 41%

Structure (SMILES): O=S(=O)(NCCCCN1CCN(c2cccc(Cl)c2Cl)CC1)c1cncc2ccccc12
IC50 [1]: 820 nM
EC50 [6]: 15000 nM
Activity (Mus musculus [7]): Non-toxic
ED50 (Mus musculus [8]): 11.3 mg/kg
Ki [2]: 90 nM
Ki [3]: 59 nM
Ki [4]: 21 nM
inhibition [9]: 93%
Ki [10]: 783 nM
inhibition in vivo at 5 mg/kg (Mus musculus [11]): 44.6%
inhibition (Mus musculus [23]): Active
Ki [5]: 220 nM
Ki (D(2) dopamine receptor): 8 nM
Ki [13]: 160 nM
inhibition [14]: 95%
ED50 (Mus musculus [16]): 5.3 mg/kg
Activity (Mus musculus [17]): 44%

The next lines start with results.

Ki [2]: 23 nM
Ki [3]: 79 nM
Ki [4]: 124 nM
Ki [5]: 484 nM
Structure (SMILES): O=S(=O)(NCCCCN1CCN(c2cccc(Cl)c2Cl)CC1)c1ccc2ncccc2c1

IC50 [1]: 7800 nM
EC50 [6]: 1650 nM
Ki [2]: 34 nM
Ki [3]: 23 nM
Ki [4]: 30 nM
inhibition [9]: 94%
Ki [10]: 1200 nM
Ki [5]: 1330 nM
Ki (D(2) dopamine receptor): 9 nM
Ki [13]: 170 nM
inhibition [14]: 99%
Structure (SMILES): O=S(=O)(NCCCCN1CCN(c2cccc(Cl)c2Cl)CC1)c1cnc2ccccc2c1
Activity (Mus musculus [7]): Non-toxic
ED50 (Mus musculus [8]): 20.7 mg/kg
inhibition in vivo at 5 mg/kg (Mus musculus [11]): 49.3%
inhibition (Mus musculus [12]): inactive
Activity (Mus musculus [15]): 31%
ED50 (Mus musculus [16]): 20.2 mg/kg
Activity (Mus musculus [17]): 30%

IC50 [1]: 2800 nM
EC50 [6]: 7400 nM
Ki [2]: 47 nM
Ki [19]: 14 nM
inhibition [9]: 90%
Ki [10]: 224 nM
Ki (D(2) dopamine receptor): 16 nM
Ki [21]: 12 nM
Ki [13]: 186 nM
Ki [22]: 257 nM
inhibition [14]: 99%
Structure (SMILES): O=S(=O)(NCCCN1CCN(c2cccc(Cl)c2Cl)CC1)c1ccc2cccnc2c1
Activity (Mus musculus [7]): Non-toxic
Activity (Mus musculus [24]): 57%
inhibition in vivo at 5 mg/kg (Mus musculus [11]): 50.5%
Activity (Mus musculus [25]): Active
Activity (Mus musculus [26]): Toxic
Activity (Mus musculus [15]): 79%
ED50 (Mus musculus [16]): 10.2 mg/kg

Ki [2]: 29 nM
Ki [3]: 112 nM
Ki [4]: 27 nM
Ki [5]: 598 nM
Structure (SMILES): O=S(=O)(NCCCCN1CCN(c2cccc(Cl)c2Cl)CC1)c1cccc2cccnc12

Ki [2]: 42 nM
Ki [3]: 88 nM
Ki [4]: 41 nM
Ki [5]: 555 nM
Structure (SMILES): O=S(=O)(NCCCCN1CCN(c2cccc(Cl)c2Cl)CC1)c1cnc2ccc(Cl)cc2c1
